Measured values from patent US20150105252A1, “SUBSTITUTED PYRAZOLES AS HERBICIDES” (E I DU PONT DE NEMOURS AND COMPANY, priority 2013, published 2015).

What was measured:
barnyardgrass [1] = test: Test A preemergence; assay type: in vivo, Echinochloa crus-galli; details: preemergence
Procedure, shortened: (§1)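 Growth medium: loam soil blended with sand. Preemergence treatment used a directed soil spray right after planting; postemergence treatment targeted seedlings at one to two leaves (2–10 cm height). Response was judged by eye relative to untreated plants about 10 days later on a 0–100 control scale.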

kochia [2] = test: Test A preemergence; assay type: in vivo, Kochia scoparia
Source text: (§2) Seeds of plant species selected from barnyardgrass (Echinochloa crus-galli), kochia (Kochia scoparia), common ragweed (Ambrosia elation), Italian ryegrass (Lolium multiflorum), crabgrass, large (large crabgrass, Digitaria sanguinalis), foxtail, giant (giant foxtail, Setaria faberii), morningglory (Ipomoea spp.), pigweed (redroot pigweed, Amaranthus retroflexus), velvetleaf (Abutilon theophrasti), wheat (Triticum aestivum), and corn (Zea mays) were planted into a blend of loam soil and sand and treated preemergence with a directed soil spray using test chemicals formulated in a non-phytotoxic solvent mixture which included a surfactant.
(§3) At the same time, plants selected from these crop and weed species and also blackgrass (Alopecurus myosuroides), and galium (catchweed bedstraw, Galium aparine) were planted in pots containing the same blend of loam soil and sand and treated with postemergence applications of test chemicals formulated in the same manner. Plants ranged in height from 2 to 10 cm and were in the one- to two-leaf stage for the postemergence treatment. Treated plants and untreated controls were maintained in a greenhouse for approximately 10 days, after which time all treated plants were compared to untreated controls and visually evaluated for injury. Plant response ratings, summarized in Table A, are based on a 0 to 100 scale where 0 is no effect and 100 is complete control. A dash (-) response means no test result.

common ragweed [3] = test: Test A preemergence; assay type: in vivo, Ambrosia elation
Procedure, shortened: as §1

Italian ryegrass [4] = test: Test A preemergence; assay type: in vivo, Lolium multiflorum
Source text: as §2, §3

foxtail, giant [5] = test: Test A preemergence; assay type: in vivo, Setaria faberii; details: preemergence
Procedure, shortened: as §1

pigweed [6] = test: Test A preemergence; assay type: in vivo, Amaranthus retroflexus; details: preemergence
Procedure, shortened: as §1

barnyardgrass [7] = test: Test A postemergence; assay type: in vivo, Echinochloa crus-galli
Procedure, shortened: as §1

kochia [8] = test: Test A postemergence; assay type: in vivo, Kochia scoparia
Procedure, shortened: as §1

common ragweed [9] = test: Test A postemergence; assay type: in vivo, Ambrosia elation
Procedure, shortened: as §1

Italian ryegrass [10] = test: Test A postemergence; assay type: in vivo, Lolium multiflorum
Source text: as §2, §3

foxtail, giant [11] = test: Test A postemergence; assay type: in vivo, Setaria faberii
Procedure, shortened: as §1

pigweed [12] = test: Test A postemergence; assay type: in vivo, Amaranthus retroflexus
Procedure, shortened: as §1

wheat = test: Test A postemergence; assay type: in vivo, Triticum aestivum
Procedure, shortened: as §1

corn = test: Test A postemergence; assay type: in vivo, Zea mays
Procedure, shortened: as §1

blackgrass = test: Test A postemergence; assay type: in vivo, Alopecurus myosuroides
Procedure, shortened: as §1

galium = test: Test A postemergence; assay type: in vivo, Galium aparine
Procedure, shortened: as §1

rice = test: Test B flood; assay type: in vivo, Oryza sativa; details: 250 g ai/ha, visual rating on 0 to 100 scale (0 no effect, 100 complete control), 13 to 15 days
Procedure, shortened: (§4)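 Plants were grown to the 2-leaf stage and pots flooded to 3 cm above soil. Compounds were applied directly into the paddy water, with depth kept for the test. After 13–15 days in greenhouse, response was rated visually against controls on a 0 (no effect) to 100 (complete control) scale.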

sedge, umbrella = test: Test B flood; assay type: in vivo, Cyperus difformis; details: 250 g ai/ha, visual rating on 0 to 100 scale (0 no effect, 100 complete control), 13 to 15 days
Procedure, shortened: as §4

ducksalad = test: Test B flood; assay type: in vivo, Heteranthera limosa; details: 250 g ai/ha, visual rating on 0 to 100 scale (0 no effect, 100 complete control), 13 to 15 days
Procedure, shortened: as §4

barnyardgrass [13] = test: Test B flood; assay type: in vivo, Echinochloa crus-galli; details: 250 g ai/ha, visual rating on 0 to 100 scale (0 no effect, 100 complete control), 13 to 15 days
Procedure, shortened: as §4

[14] = 125 g ai/ha, visual injury, 0 to 100 scale, approx. 10 days
[15] = 500 g ai/ha, visual injury after approx. 10 days, 0 to 100 scale (0 no effect, 100 complete control)
[16] = Postemergence, 500 g ai/ha, 0 to 100 scale (0 no effect, 100 complete control)
[17] = postemergence, 125 g ai/ha, about 10 days, visual rating on 0 to 100 scale (0 no effect, 100 complete control)

| SMILES | Barnyardgrass plant response rating (barnyardgrass [1]; [14]) | Barnyardgrass plant response rating (barnyardgrass [1]; [15]) | Kochia plant response rating (kochia [2]; [14]) | Kochia plant response rating (kochia [2]; [15]) | Common Ragweed plant response rating (common ragweed [3]; [14]) | Common Ragweed plant response rating (common ragweed [3]; [15]) | Italian Ryegrass plant response rating (Italian ryegrass [4]; [14]) | Italian Ryegrass plant response rating (Italian ryegrass [4]; [15]) | Foxtail, Giant plant response rating (foxtail, giant [5]; [14]) | Foxtail, Giant plant response rating (foxtail, giant [5]; [15]) | Pigweed plant response rating (pigweed [6]; [14]) | Pigweed plant response rating (pigweed [6]; [15]) | Barnyardgrass plant response rating (barnyardgrass [7]; [16]) | Barnyardgrass plant response rating (barnyardgrass [7]; [17]) | Kochia plant response rating (kochia [8]; [16]) | Kochia plant response rating (kochia [8]; [17]) | Common Ragweed plant response rating (common ragweed [9]; [16]) | Common Ragweed plant response rating (common ragweed [9]; [17]) | Italian Ryegrass plant response rating (Italian ryegrass [10]; [16]) | Italian Ryegrass plant response rating (Italian ryegrass [10]; [17]) | also measured |
| --- | --- | --- | --- | --- | --- | --- | --- | --- | --- | --- | --- | --- | --- | --- | --- | --- | --- | --- | --- | --- | --- |
| CCCNC(=O)c1cc(CC)n(Cc2cc(OC(F)F)nn2C)n1 [Compound 134] | 0 | 90 | 80 | 100 | 10 | 80 | 0 | 10 | 20 | 100 | 20 | 100 | 30 | 10 | 90 | 60 | 30 | 20 | 10 | 0 | Foxtail, Giant plant response rating (foxtail, giant [11]; [16]): 70; Foxtail, Giant plant response rating (foxtail, giant [11]; [17]): 10; Pigweed plant response rating (pigweed [12]; [16]): 90; Pigweed plant response rating (pigweed [12]; [17]): 40; Wheat plant response rating (wheat; [16]): 10; Wheat plant response rating (wheat; [17]): 0; Corn plant response rating (corn; [16]): 30; Corn plant response rating (corn; [17]): 10; Blackgrass plant response rating (blackgrass; [16]): 50; Blackgrass plant response rating (blackgrass; [17]): 10; Galium plant response rating (galium; [16]): 70; Galium plant response rating (galium; [17]): 30; Plant response rating, Rice (rice): 0; Plant response rating, Sedge, Umbrella (sedge, umbrella): 0; Plant response rating, Ducksalad (ducksalad): 0; Plant response rating, Barnyardgrass (barnyardgrass [13]): 0 |
| CCCCNC(=O)c1cc(CC)n(Cc2cc(OC(F)F)nn2C)n1 [Compound 135] | 0 | 0 | 70 | 100 | 0 | 0 | 0 | 0 | 0 | 50 | 0 | 50 | 10 | 10 | 100 | 70 | 30 | 10 | 0 | 0 | Foxtail, Giant plant response rating (foxtail, giant [11]; [16]): 10; Foxtail, Giant plant response rating (foxtail, giant [11]; [17]): 0; Pigweed plant response rating (pigweed [12]; [16]): 40; Pigweed plant response rating (pigweed [12]; [17]): 10; Wheat plant response rating (wheat; [16]): 0; Wheat plant response rating (wheat; [17]): 0; Corn plant response rating (corn; [16]): 20; Corn plant response rating (corn; [17]): 10; Blackgrass plant response rating (blackgrass; [16]): 20; Blackgrass plant response rating (blackgrass; [17]): 0; Galium plant response rating (galium; [16]): 50; Galium plant response rating (galium; [17]): 20; Plant response rating, Rice (rice): 0; Plant response rating, Sedge, Umbrella (sedge, umbrella): 0; Plant response rating, Ducksalad (ducksalad): 0; Plant response rating, Barnyardgrass (barnyardgrass [13]): 0 |
